Laboratory results taken from patent US20090318546A1, “Chromen-2-One Derivatives” (NOVARTIS AG, priority 2006, published 2009).

Assays:
Assay type in all cases: cell-based
[1] = biological target: T1, S1P-4 (Homo sapiens, UniProt O95977); experiment: FLIPR calcium flux assay, S1P-4; conditions: agonist activity
T1 construct: expressed in transfected cells; host or cells: CHO cells (G418 selection)
T1 sequence (O95977 1-384): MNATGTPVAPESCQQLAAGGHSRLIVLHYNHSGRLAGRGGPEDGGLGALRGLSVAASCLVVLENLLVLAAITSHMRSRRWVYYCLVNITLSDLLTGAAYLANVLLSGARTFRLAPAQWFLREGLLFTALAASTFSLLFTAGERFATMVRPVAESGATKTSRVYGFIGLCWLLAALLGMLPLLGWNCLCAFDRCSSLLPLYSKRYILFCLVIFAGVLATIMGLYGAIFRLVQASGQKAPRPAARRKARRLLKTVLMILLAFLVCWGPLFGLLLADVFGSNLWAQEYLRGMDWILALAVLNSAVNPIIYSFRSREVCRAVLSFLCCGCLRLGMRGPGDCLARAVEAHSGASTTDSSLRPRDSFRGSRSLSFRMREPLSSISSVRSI

[2] = biological target: T2, S1P-2 (Homo sapiens, UniProt O95136); experiment: FLIPR calcium flux assay, S1P-2; conditions: agonist activity
T2 construct: expressed in transfected cells; host or cells: CHO cells (G418 selection)
Description: (§1) A.2 FLIPR Calcium Flux Assay
(§2) Compounds of the invention are tested for agonist activity on S1P1, S1P3, S1P5, and S1P6 with a FLIPR calcium flux assay. Briefly, CHO cells expressing an S1P receptor are maintained in F-12K medium (ATCC), containing 5% FBS, with 500 ug/ml of G418. Prior to the assay, the cells are plated in 384 black clear bottom plates at the density of 10,000 cells/well/25 µl in the medium of F-12K containing 1% FBS. The second day, the cells are washed three times (25 μl/each) with washing buffer. About 25 μl of dye are added to each well and incubated for 1 hour at 37° C. and 5% CO2. The cells are then washed four times with washing buffer (25 μl/each). The calcium flux is assayed after adding 25 μl of SEW2871 (published by Rosen et al., used as reference) solution to each well of cells. The same assay is performed with cells expressing each of the different S1P receptors. Titration in the FLIPR calcium flux assay is recorded over a 3-minute interval, and quantitated as maximal peak height percentage response relative to S1P-1 activation. The compounds of the invention are active in this assay at a concentration of from 10^−12 and […].

[3] = biological target: T3, S1P5 (Homo sapiens, UniProt Q9H228); experiment: FLIPR calcium flux assay, CHO cells expressing S1P5; conditions: agonist activity; read-out: EC50 for S1P-5
T3 construct: expressed in transfected cells; host or cells: CHO cells (G418 selection)
Description: as §1, §2

[4] = biological target: T4, S1P1 (Homo sapiens, UniProt P21453); experiment: FLIPR calcium flux assay, CHO cells expressing S1P1; conditions: agonist activity; read-out: EC50 for S1P-1
T4 construct: expressed in transfected cells; host or cells: CHO cells (G418 selection)
Description: as §1, §2

[5] = biological target: T5, S1P3 (Homo sapiens, UniProt Q99500); experiment: FLIPR calcium flux assay, CHO cells expressing S1P3; conditions: agonist activity; read-out: EC50 for S1P-3
T5 construct: expressed in transfected cells; host or cells: CHO cells (G418 selection)
Description: as §1, §2

T2 sequence (O95136 whole entry): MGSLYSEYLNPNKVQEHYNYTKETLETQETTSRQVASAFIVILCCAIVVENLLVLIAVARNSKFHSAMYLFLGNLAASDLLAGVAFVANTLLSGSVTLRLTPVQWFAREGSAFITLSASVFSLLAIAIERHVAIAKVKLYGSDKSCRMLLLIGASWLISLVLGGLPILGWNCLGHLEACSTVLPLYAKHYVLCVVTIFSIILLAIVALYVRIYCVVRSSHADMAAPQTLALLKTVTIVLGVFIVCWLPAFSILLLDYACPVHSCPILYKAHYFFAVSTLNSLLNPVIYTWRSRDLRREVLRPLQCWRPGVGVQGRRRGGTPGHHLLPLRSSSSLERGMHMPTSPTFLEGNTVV
T3 sequence (Q9H228 whole entry): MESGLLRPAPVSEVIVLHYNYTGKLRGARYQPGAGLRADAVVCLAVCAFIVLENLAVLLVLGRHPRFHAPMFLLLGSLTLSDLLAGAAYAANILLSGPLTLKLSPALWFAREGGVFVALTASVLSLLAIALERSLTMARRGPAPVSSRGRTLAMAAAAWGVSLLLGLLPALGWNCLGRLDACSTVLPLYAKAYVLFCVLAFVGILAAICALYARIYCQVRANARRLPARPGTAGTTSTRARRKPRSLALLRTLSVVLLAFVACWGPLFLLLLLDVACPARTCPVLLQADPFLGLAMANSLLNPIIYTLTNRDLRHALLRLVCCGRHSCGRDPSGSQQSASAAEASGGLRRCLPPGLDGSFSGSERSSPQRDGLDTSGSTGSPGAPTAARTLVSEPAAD
T5 sequence (Q99500 whole entry): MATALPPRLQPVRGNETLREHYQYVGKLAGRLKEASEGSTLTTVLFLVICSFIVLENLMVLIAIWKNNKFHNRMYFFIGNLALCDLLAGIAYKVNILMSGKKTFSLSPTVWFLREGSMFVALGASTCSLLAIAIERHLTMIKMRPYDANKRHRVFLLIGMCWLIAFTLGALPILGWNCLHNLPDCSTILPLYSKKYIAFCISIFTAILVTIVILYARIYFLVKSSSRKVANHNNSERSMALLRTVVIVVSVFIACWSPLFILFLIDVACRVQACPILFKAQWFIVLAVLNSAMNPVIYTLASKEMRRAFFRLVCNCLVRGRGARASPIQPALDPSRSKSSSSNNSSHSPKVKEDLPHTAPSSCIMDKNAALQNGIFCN
T4 sequence (P21453 whole entry): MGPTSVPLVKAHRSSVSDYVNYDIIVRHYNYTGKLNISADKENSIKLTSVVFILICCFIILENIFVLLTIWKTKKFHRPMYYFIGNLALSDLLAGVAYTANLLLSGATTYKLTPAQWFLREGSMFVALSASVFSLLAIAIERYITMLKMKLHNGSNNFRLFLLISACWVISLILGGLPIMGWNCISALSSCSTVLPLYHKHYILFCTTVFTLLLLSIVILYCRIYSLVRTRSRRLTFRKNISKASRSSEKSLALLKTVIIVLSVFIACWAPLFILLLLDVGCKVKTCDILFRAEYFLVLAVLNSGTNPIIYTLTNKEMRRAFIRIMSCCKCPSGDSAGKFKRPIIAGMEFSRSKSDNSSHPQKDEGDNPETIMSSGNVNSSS

## CCCc1c(OC)ccc2cc(C(=O)Nc3ccc(CN)cc3)c(=O)oc12 [Example 1, 7-Methoxy-2-oxo-8-propyl-2H-chromene-3-carboxylic acid (4-aminomethyl-phenyl)-amide]
[1]
  EC50: > 1 µM
[2]
  EC50: > 1 µM
[3]
  EC50: > 1 µM
[4]
  EC50: 0.0087 µM
[5]
  EC50: > 1 µM
